Laboratory results taken from paper PMC8330740, “Discovery of new 3-methylquinoxalines as potential anti-cancer agents and apoptosis inducers targeting VEGFR-2: design, synthesis, and in silico studies” (Journal of Enzyme Inhibition and Medicinal Chemistry, 2021).

Legend:
[1] = tested on: MCF-7 (human breast cancer cell line); assay: MTT cytotoxicity assay, MCF-7; assay type: cell-based; conditions: for IC50: Homo sapiens, MCF7, MTT assay, mean of at least three different experiments; for Cytotoxic activity against the two cell lines (in words): MCF-7 and HepG2 together
Method: (§1) In vitro cytotoxicity was carried out using MTT assay protocol[47]^,[65–67] as described in Supplementary data.

Human VEGFR-2 = Human VEGFR-2 (Homo sapiens, UniProt P35968); assay: In vitro VEGFR-2 kinase assay (Human VEGFR-2 ELISA kit)
Sequence of Human VEGFR-2 (P35968 20-1356): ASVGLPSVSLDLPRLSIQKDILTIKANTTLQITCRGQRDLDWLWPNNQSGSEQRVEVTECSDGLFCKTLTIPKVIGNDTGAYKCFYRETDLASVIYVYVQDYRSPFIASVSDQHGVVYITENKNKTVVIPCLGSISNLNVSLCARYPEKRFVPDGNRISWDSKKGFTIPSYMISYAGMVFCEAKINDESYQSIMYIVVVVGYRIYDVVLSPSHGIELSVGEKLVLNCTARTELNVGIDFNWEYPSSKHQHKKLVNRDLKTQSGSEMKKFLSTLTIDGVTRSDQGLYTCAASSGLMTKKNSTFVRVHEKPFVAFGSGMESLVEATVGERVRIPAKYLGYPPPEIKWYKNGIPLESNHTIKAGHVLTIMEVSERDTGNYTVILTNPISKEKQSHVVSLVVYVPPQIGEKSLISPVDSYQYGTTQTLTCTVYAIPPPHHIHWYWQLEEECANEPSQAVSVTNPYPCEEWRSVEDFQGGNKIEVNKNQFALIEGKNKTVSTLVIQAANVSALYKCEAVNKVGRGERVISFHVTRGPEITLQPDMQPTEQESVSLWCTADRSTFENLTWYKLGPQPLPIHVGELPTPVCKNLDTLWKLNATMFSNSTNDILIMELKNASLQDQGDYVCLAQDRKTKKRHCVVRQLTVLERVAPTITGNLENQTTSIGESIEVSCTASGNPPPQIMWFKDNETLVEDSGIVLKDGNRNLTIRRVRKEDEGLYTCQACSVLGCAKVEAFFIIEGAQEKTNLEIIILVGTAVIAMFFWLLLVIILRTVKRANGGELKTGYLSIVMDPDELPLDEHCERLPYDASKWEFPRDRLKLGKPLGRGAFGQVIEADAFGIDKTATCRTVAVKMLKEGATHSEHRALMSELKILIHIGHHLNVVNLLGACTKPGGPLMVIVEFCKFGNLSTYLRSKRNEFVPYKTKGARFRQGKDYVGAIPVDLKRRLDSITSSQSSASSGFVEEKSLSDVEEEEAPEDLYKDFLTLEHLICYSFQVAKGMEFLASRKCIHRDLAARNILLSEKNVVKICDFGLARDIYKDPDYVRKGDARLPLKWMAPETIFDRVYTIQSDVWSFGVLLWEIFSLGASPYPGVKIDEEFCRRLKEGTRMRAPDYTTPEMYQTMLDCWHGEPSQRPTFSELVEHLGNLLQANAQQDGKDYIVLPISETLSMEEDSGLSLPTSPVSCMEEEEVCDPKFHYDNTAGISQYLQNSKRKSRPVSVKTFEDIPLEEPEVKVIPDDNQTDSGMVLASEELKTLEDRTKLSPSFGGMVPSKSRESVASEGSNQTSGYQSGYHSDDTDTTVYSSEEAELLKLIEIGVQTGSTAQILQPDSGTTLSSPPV

[2] = tested on: HepG2 (human liver carcinoma cell line); assay: MTT cytotoxicity assay, HepG2; assay type: cell-based; conditions: mean of at least three different experiments
Method: as §1

HepG2 cells [3] = assay: Cell cycle analysis (propidium iodide staining, flow cytometry); assay type: cell-based, human; conditions: HepG2, 2.1 µM, 24 h
Method: HepG2 cells were used as a control without treatment by compound 11e.
The effect of compound 11e on cell cycle distribution was performed using propidium iodide (PI) staining technique as described in Supplementary data[71–73].

caspase-9 = assay: Western blot, caspase-9 level in HepG2; assay type: cell-based, human; conditions: HepG2, 2.1 µM, 24 h; compared to control cells
Method: (§2) To investigate the effect of the synthesised compounds on caspase-3 and caspase-9 levels, the most promising member 11e was applied on the most sensitive cells (HepG2) at a concentration of 2.1 µM for 24 h.
(§3) Western blot technique was applied to assess the potential effect of compound 11e on the expression of caspase‐9, caspase‐3, BAX, and Bcl‐2 as reported in Supplementary data[77–79].

Bcl-2 = assay: Western blot, Bcl-2 level in HepG2; assay type: cell-based, human; conditions: HepG2, 24 h
Method: (§4) Compound 11e as a promising member was investigated to evaluate its effect on BAX and Bcl-2 after 24 h of its application on HepG2 cells using Western blot technique.
as §3

primary rat hepatocytes = assay: In vitro cytotoxicity against normal cells; conditions: Hepatocyte, read-out: IC50 primary rat hepatocytes
caspase-3 = assay: Western blot, caspase-3 level in HepG2; assay type: cell-based, human; conditions: HepG2, 2.1 µM, 24 h; compared to control cells
Method: as §2, §3

BAX = assay: Western blot, BAX level in HepG2; assay type: cell-based, human; conditions: HepG2, 24 h
Method: as §4, §3

HepG2 cells [4] = assay: Apoptosis analysis (Annexin-V/propidium iodide staining); assay type: cell-based, human; conditions: HepG2, 2.1 µM, 24 h
Method: To quantify the apoptosis triggered by 11e, Annexin-V/propidium iodide (PI) staining assay was conducted. In such procedure, compound 11e at a concentration of 2.1 µM was applied on HepG2 cells. Then, the media were incubated for 24 h. […] In details, compound 11e induced apoptosis by 49.14% (early apoptosis = 48.87% & late apoptosis = 0.27%), compared to 9.71% in the control cells (early apoptosis = 9.58% & late apoptosis = 0.13%).
The effect of compound 11e on cell apoptosis was investigated as described in Supplementary data[74–76].

[5] = mean ± SD of three experiments, listed as Compound 11e

SMILES | IC50 [1] | IC50 (Human VEGFR-2) | IC50 [2] | other results
CNC(=O)c1ccc(NC(=O)Cn2c(=O)c(C)nc3ccccc32)cc1 [Compound 11a, N-Methyl-4–(2-(3-methyl-2-oxoquinoxalin-1(2H)-yl)acetamido)benzamide] | 23.9 µM | 0.0112 µM | 16.5 µM | 
CCC(C)NC(=O)c1ccc(NC(=O)Cn2c(=O)c(C)nc3ccccc32)cc1 (stereo not drawn) [Compound 11b, N-(sec-Butyl)-4–(2-(3-methyl-2-oxoquinoxalin-1(2H)-yl)acetamido)benzamide] | 21.2 µM | 0.0053 µM | 12.8 µM | 
Cc1nc2ccccc2n(CC(=O)Nc2ccc(C(=O)NC3CCCC3)cc2)c1=O [Compound 11c, N-Cyclopentyl-4–(2-(3-methyl-2-oxoquinoxalin-1(2H)-yl)acetamido)benzamide] | 28.1 µM | 0.0127 µM | 18.7 µM | 
COc1ccccc1NC(=O)c1ccc(NC(=O)Cn2c(=O)c(C)nc3ccccc32)cc1 [Compound 11d, N-(2-Methoxyphenyl)-4–(2-(3-methyl-2-oxoquinoxalin-1(2H)-yl)acetamido)benzamide] | 52.3 µM | 0.0374 µM | 34.1 µM | Cytotoxic activity against the two cell lines (in words) [1]: weak cytotoxic activity
COc1cccc(NC(=O)c2ccc(NC(=O)Cn3c(=O)c(C)nc4ccccc43)cc2)c1 [Compound 11e, N-(3-Methoxyphenyl)-4–(2-(3-methyl-2-oxoquinoxalin-1(2H)-yl)acetamido)benzamide] | 2.7 µM | 0.0026 µM | 2.1 µM | phase at which HepG2 cell growth is arrested (HepG2 cells [3]): G2/M phase; percentage of cells at the G2/M phase (HepG2 cells [3]; control 18.24%): 46.62%; percentage of cells at the S phase (HepG2 cells [3]; control 25.48): 31.80%; percentage of cells at G1 phase (HepG2 cells [3]; control 55.03%): 20.34%; increase in the level of caspase-9 (caspase-9): 2.34 fold; Bcl-2 level decrease (Bcl-2): 3.13 fold; IC50 (primary rat hepatocytes): 15 µM; increase in the level of caspase-3 (caspase-3): 2.34 fold; BAX level increase (BAX): 3.14 fold; BAX/Bcl-2 ratio (BAX): 9.17; induced apoptosis (early + late) (HepG2 cells [4]; control 9.71%): 49.14%; Apoptosis Early (Right Bottom) (HepG2 cells [4]; mean ± SD of three experiments): 48.87%; Apoptosis Late (Right Top) (HepG2 cells [4]; mean ± SD of three experiments): 0.27%; Necrosis (Left Top) (HepG2 cells [4]; mean ± SD of three experiments): 0.20 ± 0.03; Apoptosis Early (Right Bottom) (HepG2 cells [4]; [5]): 48.87 ± 3.69%; Apoptosis Late (Right Top) (HepG2 cells [4]; [5]): 0.27 ± 0.04%; viability at 2.1 µM (HepG2 cells [4]; Homo sapiens, mean ± SD of three experiments, read-out: Viable (Left Bottom)): 50.6 ± 3.66%
COc1ccc(NC(=O)c2ccc(NC(=O)Cn3c(=O)c(C)nc4ccccc43)cc2)cc1 [Compound 11f, N-(4-Methoxyphenyl)-4–(2-(3-methyl-2-oxoquinoxalin-1(2H)-yl)acetamido)benzamide] | 12.4 µM | 0.0048 µM | 9.6 µM | 
CC(=O)c1ccc(NC(=O)c2ccc(NC(=O)Cn3c(=O)c(C)nc4ccccc43)cc2)cc1 [Compound 11g, N-(4-Acetylphenyl)-4–(2-(3-methyl-2-oxoquinoxalin-1(2H)-yl)acetamido)benzamide] | 6.7 µM | 0.0034 µM | 3.8 µM | 
Cc1nc2ccccc2n(CC(=O)Nc2ccc(C(=O)Nc3ccc(F)cc3)cc2)c1=O [Compound 11h, N-(4-Fluorophenyl)-4–(2-(3-methyl-2-oxoquinoxalin-1(2H)-yl)acetamido)benzamide] | 25.8 µM | 0.0116 µM | 22.7 µM | Cytotoxic activity against the two cell lines (in words) [1]: weak cytotoxic activity
Cc1nc2ccccc2n(CC(=O)Nc2ccc(C(=O)Nc3ccccn3)cc2)c1=O [Compound 11i, 4–(2-(3-Methyl-2-oxoquinoxalin-1(2H)-yl)acetamido)-N-(pyridin-2-yl)benzamide] | 69.7 µM | 0.0527 µM | 51.8 µM | Cytotoxic activity against the two cell lines (in words) [1]: weak cytotoxic activity
Cc1nc2ccccc2n(CC(=O)Nc2ccc(C(=O)Nc3nccs3)cc2)c1=O [Compound 11j, 4–(2-(3-Methyl-2-oxoquinoxalin-1(2H)-yl)acetamido)-N-(thiazol-2-yl)benzamide] | 32.8 µM | 0.0134 µM | 27.8 µM | Cytotoxic activity against the two cell lines (in words) [1]: weak cytotoxic activity
CNC(=O)c1ccc(NC(=O)CSc2nc3ccccc3nc2C)cc1 [Compound 12a, N-Methyl-4–(2-((3-methylquinoxalin-2-yl)thio)acetamido)benzamide] | 69.2 µM | 0.0327 µM | 23.7 µM | Cytotoxic activity against the two cell lines (in words) [1]: weak cytotoxic activity
CCC(C)NC(=O)c1ccc(NC(=O)CSc2nc3ccccc3nc2C)cc1 (stereo not drawn) [Compound 12b, N-(sec-Butyl)-4–(2-((3-methylquinoxalin-2-yl)thio)acetamido)benzamide] | 35.7 µM | 0.0157 µM | 21.7 µM | Cytotoxic activity against the two cell lines (in words) [1]: weak cytotoxic activity
Cc1nc2ccccc2nc1SCC(=O)Nc1ccc(C(=O)NC2CCCC2)cc1 [Compound 12c, N-Cyclopentyl-4–(2-((3-methylquinoxalin-2-yl)thio)acetamido)benzamide] | 31.3 µM | 0.0198 µM | 18.7 µM | 
COc1ccccc1NC(=O)c1ccc(NC(=O)CSc2nc3ccccc3nc2C)cc1 [Compound 12d, N-(2-Methoxyphenyl)-4–(2-((3-methylquinoxalin-2-yl)thio)acetamido) benzamide] | 23.5 µM | 0.0134 µM | 17.6 µM | 
COc1cccc(NC(=O)c2ccc(NC(=O)CSc3nc4ccccc4nc3C)cc2)c1 [Compound 12e, N-(3-Methoxyphenyl)-4–(2-((3-methylquinoxalin-2-yl)thio)acetamido) benzamide] | 5.3 µM | 0.0038 µM | 4.8 µM | IC50 (primary rat hepatocytes): 16.7 µM
COc1ccc(NC(=O)c2ccc(NC(=O)CSc3nc4ccccc4nc3C)cc2)cc1 [Compound 12f, N-(4-Methoxyphenyl)-4–(2-((3-methylquinoxalin-2-yl)thio)acetamido) benzamide] | 10.8 µM | 0.0038 µM | 7.5 µM | 
CC(=O)c1ccc(NC(=O)c2ccc(NC(=O)CSc3nc4ccccc4nc3C)cc2)cc1 [Compound 12g, N-(4-Acetylphenyl)-4–(2-((3-methylquinoxalin-2-yl)thio)acetamido)benzamide] | 8.7 µM | 0.0054 µM | 6.1 µM | 
Cc1nc2ccccc2nc1SCC(=O)Nc1ccc(C(=O)Nc2ccc(F)cc2)cc1 [Compound 12h, N-(4-Fluorophenyl)-4–(2-((3-methylquinoxalin-2-yl)thio)acetamido)benzamide] | 67.8 µM | 0.0514 µM | 35.8 µM | 
Cc1nc2ccccc2nc1SCC(=O)Nc1ccc(C(=O)Nc2ccccn2)cc1 [Compound 12i, 4–(2-((3-Methylquinoxalin-2-yl)thio)acetamido)-N-(pyridin-2-yl)benzamide] | 58.6 µM | 0.0241 µM | 44.7 µM | 
Cc1cccc(NC(=O)c2ccc(NC(=O)CSc3nc4ccccc4nc3C)cc2)c1 [Compound 12j, 4–(2-((3-Methylquinoxalin-2-yl)thio)acetamido)-N-(m-tolyl)benzamide] | 61.2 µM | 0.0378 µM | 40.7 µM | 
Cc1ccc(NC(=O)c2ccc(NC(=O)CSc3nc4ccccc4nc3C)cc2)cc1 [Compound 12k, 4–(2-((3-Methylquinoxalin-2-yl)thio)acetamido)-N-(p-tolyl)benzamide] | 9.8 µM | 0.0029 µM | 6.7 µM | 
CNC(=O)c1cc(Oc2ccc(NC(=O)Nc3ccc(Cl)c(C(F)(F)F)c3)cc2)ccn1 [Sorafenib, reference compound] | 3.4 µM |  | 2.2 µM | IC50 (primary rat hepatocytes): 13.4 µM
